Legend:
Type in all cases: functional
ACHN = assay: Growth inhibition of human ACHN cells at 10 uM after 48 hrs by sulforhodamine B assay; settings: read-out: GI
SK-MEL-28 = assay: Growth inhibition of human SK-MEL-28 cells at 10 uM after 48 hrs by sulforhodamine B assay; settings: SK-MEL-28, 48 h, read-out: GI
SW-620 = assay: Growth inhibition of human SW620 cells at 10 uM after 48 hrs by sulforhodamine B assay; settings: SW-620, 48 h, read-out: GI
IGROV-1 = assay: Growth inhibition of human IGROV1 cells at 10 uM after 48 hrs by sulforhodamine B assay; settings: IGROV-1, 48 h, read-out: GI
CAKI-1 = assay: Growth inhibition of human CAKI-1 cells at 10 uM after 48 hrs by sulforhodamine B assay; settings: CAKI-1, 48 h, read-out: GI
SF-539 = assay: Growth inhibition of human SF539 cells at 10 uM after 48 hrs by sulforhodamine B assay; settings: SF-539, 48 h, read-out: GI
NCI/ADR-RES = assay: Growth inhibition of human NCI/ADR-RES cells at 10 uM after 48 hrs by sulforhodamine B assay; settings: read-out: GI
UACC-62 = assay: Growth inhibition of human UACC62 cells at 10 uM after 48 hrs by sulforhodamine B assay; settings: UACC-62, 48 h, read-out: GI
SK-MEL-5 = assay: Growth inhibition of human SK-MEL-5 cells at 10 uM after 48 hrs by sulforhodamine B assay; settings: SK-MEL-5, 48 h, read-out: GI
SNB-75 = assay: Growth inhibition of human SNB75 cells at 10 uM after 48 hrs by sulforhodamine B assay; settings: SNB-75, 48 h, read-out: GI
HT-29 = assay: Growth inhibition of human HT-29 cells at 10 uM after 48 hrs by sulforhodamine B assay; settings: HT-29, 48 h, read-out: GI
OVCAR-3 = assay: Growth inhibition of human OVCAR3 cells at 10 uM after 48 hrs by sulforhodamine B assay; settings: OVCAR-3, 48 h, read-out: GI
BT-549 = assay: Growth inhibition of human BT549 cells at 10 uM after 48 hrs by sulforhodamine B assay; settings: BT-549, 48 h, read-out: GI
SF-295 = assay: Growth inhibition of human SF295 cells at 10 uM after 48 hrs by sulforhodamine B assay; settings: SF-295, 48 h, read-out: GI
HL-60(TB) = assay: Growth inhibition of human HL-60(TB) cells at 10 uM after 48 hrs by sulforhodamine B assay; settings: HL-60, 48 h, read-out: GI
HOP-92 = assay: Growth inhibition of human HOP92 cells at 10 uM after 48 hrs by sulforhodamine B assay; settings: HOP-92, 48 h, read-out: GI
NCI-H522 = assay: Growth inhibition of human NCI-H522 cells at 10 uM after 48 hrs by sulforhodamine B assay; settings: NCI-H522, 48 h, read-out: GI
OVCAR-4 = assay: Growth inhibition of human OVCAR4 cells at 10 uM after 48 hrs by sulforhodamine B assay; settings: OVCAR-4, 48 h, read-out: GI
OVCAR-5 = assay: Growth inhibition of human OVCAR5 cells at 10 uM after 48 hrs by sulforhodamine B assay; settings: OVCAR-5, 48 h, read-out: GI
A498 = assay: Growth inhibition of human A498 cells at 10 uM after 48 hrs by sulforhodamine B assay; settings: A498, 48 h, read-out: GI
CCRF-CEM = assay: Growth inhibition of human CCRF-CEM cells at 10 uM after 48 hrs by sulforhodamine B assay; settings: read-out: GI
HCC 2998 = assay: Growth inhibition of human HCC2998 cells at 10 uM after 48 hrs by sulforhodamine B assay; settings: HCC 2998, 48 h, read-out: GI
SF-268 = assay: Growth inhibition of human SF268 cells at 10 uM after 48 hrs by sulforhodamine B assay; settings: SF-268, 48 h, read-out: GI
NCI-H226 = assay: Growth inhibition of human NCI-H226 cells at 10 uM after 48 hrs by sulforhodamine B assay; settings: NCI-H226, 48 h, read-out: GI
RXF 393 = assay: Growth inhibition of human RXF393 cells at 10 uM after 48 hrs by sulforhodamine B assay; settings: RXF 393, 48 h, read-out: GI
COLO 205 = assay: Growth inhibition of human COLO205 cells at 10 uM after 48 hrs by sulforhodamine B assay; settings: COLO 205, 48 h, read-out: GI
SK-MEL-2 = assay: Growth inhibition of human SK-MEL-2 cells at 10 uM after 48 hrs by sulforhodamine B assay; settings: SK-MEL-2, 48 h, read-out: GI
MDA-MB-468 = assay: Growth inhibition of human MDA-MB-468 cells at 10 uM after 48 hrs by sulforhodamine B assay; settings: MDA-MB-468, 48 h, read-out: GI
Malme-3M = assay: Growth inhibition of human MALME-3M cells at 10 uM after 48 hrs by sulforhodamine B assay; settings: read-out: GI
MOLT-4 = assay: Growth inhibition of human MOLT4 cells at 10 uM after 48 hrs by sulforhodamine B assay; settings: MOLT-4, 48 h, read-out: GI
SN12C = assay: Growth inhibition of human SN12C cells at 10 uM after 48 hrs by sulforhodamine B assay; settings: read-out: GI
HCT-15 = assay: Growth inhibition of human HCT15 cells at 10 uM after 48 hrs by sulforhodamine B assay; settings: HCT-15, 48 h, read-out: GI
U-251 = assay: Growth inhibition of human U251 cells at 10 uM after 48 hrs by sulforhodamine B assay; settings: U-251, 48 h, read-out: GI
786-0 = assay: Growth inhibition of human 786-0 cells at 10 uM after 48 hrs by sulforhodamine B assay; settings: 786-0, 48 h, read-out: GI
KM12 = assay: Growth inhibition of human KM12 cells at 10 uM after 48 hrs by sulforhodamine B assay; settings: KM12, 48 h, read-out: GI
SR = assay: Growth inhibition of human SR cells at 10 uM after 48 hrs by sulforhodamine B assay; settings: read-out: GI
UO-31 = assay: Growth inhibition of human UO31 cells at 10 uM after 48 hrs by sulforhodamine B assay; settings: UO-31, 48 h, read-out: GI
DU-145 = assay: Growth inhibition of human DU145 cells at 10 uM after 48 hrs by sulforhodamine B assay; settings: DU-145, 48 h, read-out: GI
TK-10 = assay: Growth inhibition of human TK10 cells at 10 uM after 48 hrs by sulforhodamine B assay; settings: TK-10, 48 h, read-out: GI
A549 = assay: Growth inhibition of human A549/ATCC cells at 10 uM after 48 hrs by sulforhodamine B assay; settings: A549, 48 h, read-out: GI

SMILES: CO[C@@H]1[C@@H](OC)N(S(=O)(=O)c2ccc(Cl)cc2)C(=O)N1S(=O)(=O)c1ccc(Cl)cc1 (relative stereo)
- inhibition of growth at 10 µM (ACHN): 9.71%
- inhibition of growth at 10 µM (SK-MEL-28): -7.4%
- inhibition of growth at 10 µM (SW-620): 1.4%
- inhibition of growth at 10 µM (IGROV-1): 23.1%
- inhibition of growth at 10 µM (CAKI-1): 67.5%
- inhibition of growth at 10 µM (SF-539): -15.2%
- inhibition of growth at 10 µM (NCI/ADR-RES): 13.8%
- inhibition of growth at 10 µM (UACC-62): 42.1%
- inhibition of growth at 10 µM (SK-MEL-5): -2.95%
- inhibition of growth at 10 µM (SNB-75): 19.7%
- inhibition of growth at 10 µM (HT-29): 16%
- inhibition of growth at 10 µM (OVCAR-3): -4.48%
- inhibition of growth at 10 µM (BT-549): 2.35%
- inhibition of growth at 10 µM (SF-295): 34%
- inhibition of growth at 10 µM (HL-60(TB)): 3.82%
- inhibition of growth at 10 µM (HOP-92): 49.9%
- inhibition of growth at 10 µM (NCI-H522): 26.7%
- inhibition of growth at 10 µM (OVCAR-4): 21.3%
- inhibition of growth at 10 µM (OVCAR-5): 8.25%
- inhibition of growth at 10 µM (A498): 4.59%
- inhibition of growth at 10 µM (CCRF-CEM): 15.5%
- inhibition of growth at 10 µM (HCC 2998): 5.43%
- inhibition of growth at 10 µM (SF-268): 1.84%
- inhibition of growth at 10 µM (NCI-H226): 4.24%
- inhibition of growth at 10 µM (RXF 393): -11.5%
- inhibition of growth at 10 µM (COLO 205): -3.4%
- inhibition of growth at 10 µM (SK-MEL-2): 13.1%
- inhibition of growth at 10 µM (MDA-MB-468): 6.61%
- inhibition of growth at 10 µM (Malme-3M): 6.65%
- inhibition of growth at 10 µM (MOLT-4): 43.5%
- inhibition of growth at 10 µM (SN12C): 14.4%
- inhibition of growth at 10 µM (HCT-15): 19.8%
- inhibition of growth at 10 µM (U-251): 6.07%
- inhibition of growth at 10 µM (786-0): 16.8%
- inhibition of growth at 10 µM (KM12): 3.47%
- inhibition of growth at 10 µM (SR): 34.7%
- inhibition of growth at 10 µM (UO-31): 39.4%
- inhibition of growth at 10 µM (DU-145): -9.28%
- inhibition of growth at 10 µM (TK-10): 7.51%
- inhibition of growth at 10 µM (A549): 21.7%

— ChEMBL document CHEMBL1955806, “Design, synthesis, single-crystal and preliminary antitumor activity of novel arenesulfonylimidazolidin-2-ones” (2012)
